According to the NIST ThermoML archive (doi:10.1021/je0601457):
Numbers after ± are expanded uncertainties.

Assay: xn = mol fraction of the nth substance listed

c1cnccn1 [pyrazine] + O=C=O
Fluid (supercritical or subcritical phases), Linear displacement technique
Details	mass density [kg/m3]
294.25 K, 5340 kPa, x1 = 0.308	1054 ± 42
294.25 K, 9480 kPa, x1 = 0.308	1070 ± 43
294.25 K, 12170 kPa, x1 = 0.308	1078 ± 43
295.55 K, 6450 kPa, x1 = 0.019	854 ± 36
295.55 K, 7000 kPa, x1 = 0.019	877 ± 36
295.55 K, 9070 kPa, x1 = 0.019	915 ± 37
295.65 K, 5520 kPa, x1 = 0.146	887 ± 36
295.65 K, 5970 kPa, x1 = 0.074	926 ± 39
295.65 K, 6100 kPa, x1 = 0.074	929 ± 37
295.65 K, 6310 kPa, x1 = 0.074	941 ± 38
295.65 K, 6380 kPa, x1 = 0.116	815 ± 33
295.65 K, 6520 kPa, x1 = 0.146	898 ± 36
295.65 K, 8210 kPa, x1 = 0.116	833 ± 33
295.65 K, 12790 kPa, x1 = 0.146	926 ± 37
296.25 K, 6140 kPa, x1 = 0.09	873 ± 35
296.25 K, 9830 kPa, x1 = 0.09	923 ± 37
298.25 K, 6590 kPa, x1 = 0.015	863 ± 36
298.25 K, 7520 kPa, x1 = 0.015	892 ± 36
298.25 K, 8790 kPa, x1 = 0.015	918 ± 37
299.45 K, 7760 kPa, x1 = 0.224	921 ± 37
300.75 K, 6520 kPa, x1 = 0.177	894 ± 36
300.75 K, 7070 kPa, x1 = 0.177	898 ± 40
300.75 K, 10790 kPa, x1 = 0.177	917 ± 37
303.65 K, 7070 kPa, x1 = 0.074	903 ± 36
303.65 K, 8720 kPa, x1 = 0.074	924 ± 37
303.75 K, 7480 kPa, x1 = 0.015	828 ± 33
303.75 K, 9410 kPa, x1 = 0.015	898 ± 39
303.75 K, 10240 kPa, x1 = 0.015	917 ± 37
303.75 K, 12450 kPa, x1 = 0.015	956 ± 47
304.15 K, 7690 kPa, x1 = 0.019	791 ± 35
304.15 K, 8380 kPa, x1 = 0.019	826 ± 35
304.15 K, 9210 kPa, x1 = 0.019	849 ± 37
304.15 K, 10520 kPa, x1 = 0.019	876 ± 35
304.15 K, 11900 kPa, x1 = 0.019	898 ± 37
304.25 K, 7340 kPa, x1 = 0.116	798 ± 32
304.25 K, 7550 kPa, x1 = 0.116	801 ± 32
304.25 K, 9550 kPa, x1 = 0.116	816 ± 34
304.95 K, 7280 kPa, x1 = 0.308	1036 ± 41
304.95 K, 9690 kPa, x1 = 0.308	1041 ± 42
304.95 K, 13620 kPa, x1 = 0.308	1052 ± 42
305.75 K, 6930 kPa, x1 = 0.146	839 ± 51
305.75 K, 7280 kPa, x1 = 0.146	863 ± 35
305.75 K, 11690 kPa, x1 = 0.146	886 ± 35
305.85 K, 7340 kPa, x1 = 0.09	858 ± 34
305.85 K, 10170 kPa, x1 = 0.09	884 ± 36
306.35 K, 6520 kPa, x1 = 0.397	1049 ± 42
306.35 K, 9690 kPa, x1 = 0.397	1061 ± 42
306.35 K, 13690 kPa, x1 = 0.397	1070 ± 43
308.25 K, 7550 kPa, x1 = 0.074	882 ± 35
308.25 K, 9480 kPa, x1 = 0.074	906 ± 36
308.65 K, 6030 kPa, x1 = 0.495	999 ± 40
308.65 K, 7000 kPa, x1 = 0.495	1001 ± 40
308.65 K, 9240 kPa, x1 = 0.495	1008 ± 40
309.45 K, 7070 kPa, x1 = 0.177	872 ± 35
309.45 K, 7620 kPa, x1 = 0.177	874 ± 35
309.45 K, 9760 kPa, x1 = 0.177	884 ± 36
312.05 K, 9480 kPa, x1 = 0.224	899 ± 36
312.05 K, 9760 kPa, x1 = 0.015	778 ± 35
312.05 K, 9930 kPa, x1 = 0.015	787 ± 35
312.05 K, 10410 kPa, x1 = 0.015	812 ± 34
312.05 K, 11100 kPa, x1 = 0.015	835 ± 35
312.05 K, 16790 kPa, x1 = 0.224	919 ± 37
312.75 K, 7760 kPa, x1 = 0.308	1023 ± 41
312.75 K, 11690 kPa, x1 = 0.308	1033 ± 41
312.75 K, 14830 kPa, x1 = 0.308	1043 ± 42
313.55 K, 8450 kPa, x1 = 0.116	773 ± 31
313.55 K, 8790 kPa, x1 = 0.116	778 ± 31
313.55 K, 10860 kPa, x1 = 0.116	791 ± 33
313.65 K, 9030 kPa, x1 = 0.019	687 ± 46
313.65 K, 9140 kPa, x1 = 0.019	712 ± 46
313.65 K, 9830 kPa, x1 = 0.019	761 ± 35
313.65 K, 10450 kPa, x1 = 0.019	792 ± 34
313.65 K, 10860 kPa, x1 = 0.019	809 ± 33
313.65 K, 12520 kPa, x1 = 0.019	850 ± 35
314.85 K, 8240 kPa, x1 = 0.146	833 ± 33
314.85 K, 8860 kPa, x1 = 0.146	839 ± 34
314.85 K, 14240 kPa, x1 = 0.146	869 ± 35
314.95 K, 7830 kPa, x1 = 0.397	1040 ± 42
314.95 K, 11280 kPa, x1 = 0.397	1048 ± 42
314.95 K, 15140 kPa, x1 = 0.397	1060 ± 42
315.85 K, 8660 kPa, x1 = 0.09	813 ± 33
318.95 K, 9210 kPa, x1 = 0.015	512 ± 25
318.95 K, 9280 kPa, x1 = 0.015	527 ± 25
318.95 K, 9480 kPa, x1 = 0.015	571 ± 26
320.15 K, 9140 kPa, x1 = 0.09	806 ± 38
320.15 K, 10790 kPa, x1 = 0.09	830 ± 33
320.95 K, 9660 kPa, x1 = 0.224	877 ± 35
320.95 K, 13000 kPa, x1 = 0.224	889 ± 36
321.55 K, 9280 kPa, x1 = 0.177	839 ± 34
321.55 K, 10520 kPa, x1 = 0.177	847 ± 34
321.55 K, 12520 kPa, x1 = 0.177	857 ± 34

linear displacement
Details	mass density [kg/m3]
294.25 K, Liquid, x1 = 0.308	1048 ± 43
295.55 K, Liquid, x1 = 0.019	842 ± 34
295.65 K, Liquid, x1 = 0.074	922 ± 37
295.65 K, Liquid, x1 = 0.116	809 ± 32
295.65 K, Liquid, x1 = 0.146	887 ± 36
296.25 K, Liquid, x1 = 0.09	864 ± 35
298.25 K, Liquid, x1 = 0.015	857 ± 34
299.45 K, Liquid, x1 = 0.224	910 ± 36
300.75 K, Liquid, x1 = 0.177	889 ± 36
303.65 K, Liquid, x1 = 0.074	900 ± 36
303.75 K, Liquid, x1 = 0.015	802 ± 32
304.15 K, Liquid, x1 = 0.019	776 ± 31
304.25 K, Liquid, x1 = 0.116	795 ± 32
304.95 K, Liquid, x1 = 0.308	1028 ± 41
305.75 K, Liquid, x1 = 0.146	860 ± 35
305.85 K, Liquid, x1 = 0.09	854 ± 34
306.35 K, Liquid, x1 = 0.397	1042 ± 42
308.25 K, Liquid, x1 = 0.074	878 ± 35
308.65 K, Liquid, x1 = 0.495	992 ± 40
309.45 K, Liquid, x1 = 0.177	870 ± 35
312.05 K, Liquid, x1 = 0.015	656 ± 26
312.05 K, Liquid, x1 = 0.224	887 ± 36
312.75 K, Liquid, x1 = 0.308	1019 ± 41
313.55 K, Liquid, x1 = 0.116	771 ± 31
313.65 K, Liquid, x1 = 0.019	679 ± 27
314.85 K, Liquid, x1 = 0.146	830 ± 34
314.95 K, Liquid, x1 = 0.397	1037 ± 42
315.85 K, Liquid, x1 = 0.09	810 ± 32
318.95 K, Gas, x1 = 0.015	452 ± 18
320.15 K, Liquid, x1 = 0.09	799 ± 32
320.95 K, Liquid, x1 = 0.224	870 ± 35
